Test results published in article PMC8850458, “The AUTOTAC chemical biology platform for targeted protein degradation via the autophagy-lysosome system” (Nature Communications, 2022).
“And” between values parts separate entries of the source, which are not always exact repeats. Identical values can stand only once. Blank lines part the entries; values can stand above or below the compound they belong to.

What was measured:
VCaP cells = tested on: VCaP cells; set-up: method as in printed; settings: reviewer comment, ref not given; cited from earlier work
mutant p62^D129A = target: T1, mutant p62^D129A (Homo sapiens, UniProt Q13501, D129A); assay: Pulldown assay with biotinylated YOK-2204, wild-type or D129A p62-myc; type: binding; settings: HEK293T
T1 construct: expressed in transfected cells; host or cells: HEK293T, transient; cell extract used
Experimental: (§1) A set of synthetic 12-mer peptides corresponding to the N-terminal sequences of the V-BiP (V[19]-[…]-biotin) and V-RGS4 (V^2-[…]-biotin) was C-terminally biotin-conjugated. Alternatively, biotinylated versions of YOK-1304, YT-8-8, YTK-1105, YOK-2204, and PBA were synthesized. To cross-link the above peptides with resin beads, biotin-conjugated peptides, and small molecule were mixed with high-capacity streptavidin agarose resin (Thermo Fisher Scientific) at a ratio of 0.5 mg of peptide per 1 mL of settled resin and incubated on a rotator at 4 °C overnight. After washing five times with PBS, the peptide/small molecule-bead conjugates were diluted with PBS at a 1:1 ratio. To prepare protein extracts, cells were collected by centrifugation and lysed by freezing and thawing at least 10 times in hypotonic buffer [10 mM KCl, 1.5 mM MgCl2, and 10 mM HEPES (pH 7.9)] with a protease inhibitor mix (Sigma). After centrifugation at 15,000 rpm 4 °C for 15 min, proteins were quantified using a BCA protein assay kit (Thermo Fisher Scientific). Total protein (200 μg) diluted in 300 μL of binding buffer [0.05% Tween-20, 10% glycerol, 0.2 M KCl, and 20 mM HEPES (pH 7.9)] were mixed with 50 μL of peptide/small molecule-bead resin and incubated at 4 °C for 2 h on a rotator. The protein-bound beads were collected by centrifugation at 2400 × g for 3 min and washed five times with binding buffer. […]

[1] = tested on: p62 and LC3 punctate structures; assay: ICC of p62 and LC3 puncta formation and co-localization in HeLa cells; type: cell-based; settings: 2.5 μM, 24 h
Experimental: (§2) Cells were cultured on coverslips coated with poly-L-lysine (Sigma) to observe cellular localization of proteins. Using 4% paraformaldehyde in PBS (pH 7.4), the cells were fixed for 15 min at room temperature and washed three times for 5 min with PBS. After fixing, the cells were permeabilized with 0.5% Triton X-100 in PBS solution for 15 min and washed three times with PBS for 5 min. The cells were blocked containing 2% BSA in PBS solution for 1 h at room temperature. Subsequently, the cells were incubated with primary antibody diluted in 2% BSA/PBS solution overnight at 4 °C, followed by washing the cells three times for 10 min with PBS and incubated with Alexa Fluor-conjugated secondary antibody diluted in 2% BSA/PBS for 30 min at room temperature. Using a DAPI-containing mounting medium (Vector Laboratories), the coverslips were mounted on glass slides. Confocal images were taken by laser scanning confocal microscope 510 Meta (Zeiss) and analyzed by Zeiss LSM Image Browser (ver. 4.2.0.121). […] Quantification results are shown as mean ± S.D. or S.E.M. of three independent experiments

LNCaP cells = assay: WST-based cell viability assay in LNCaP cells; settings: LNcaP, duplicates
[2] = WST-based cell viability assay in LNCaP cells; settings: human, LNCaP cells
NBR1 = target: T2, NBR1 (Homo sapiens, UniProt Q14596); assay: Competition pulldown assay with biotinylated YOK-2204 (NBR1); type: binding; settings: HEK293T
T2 construct: pulldown assay in HEK293T cells using biotinylated YOK-2204; endogenous in cells; host or cells: HEK293T cell extract
T2 sequence (Q14596 whole entry): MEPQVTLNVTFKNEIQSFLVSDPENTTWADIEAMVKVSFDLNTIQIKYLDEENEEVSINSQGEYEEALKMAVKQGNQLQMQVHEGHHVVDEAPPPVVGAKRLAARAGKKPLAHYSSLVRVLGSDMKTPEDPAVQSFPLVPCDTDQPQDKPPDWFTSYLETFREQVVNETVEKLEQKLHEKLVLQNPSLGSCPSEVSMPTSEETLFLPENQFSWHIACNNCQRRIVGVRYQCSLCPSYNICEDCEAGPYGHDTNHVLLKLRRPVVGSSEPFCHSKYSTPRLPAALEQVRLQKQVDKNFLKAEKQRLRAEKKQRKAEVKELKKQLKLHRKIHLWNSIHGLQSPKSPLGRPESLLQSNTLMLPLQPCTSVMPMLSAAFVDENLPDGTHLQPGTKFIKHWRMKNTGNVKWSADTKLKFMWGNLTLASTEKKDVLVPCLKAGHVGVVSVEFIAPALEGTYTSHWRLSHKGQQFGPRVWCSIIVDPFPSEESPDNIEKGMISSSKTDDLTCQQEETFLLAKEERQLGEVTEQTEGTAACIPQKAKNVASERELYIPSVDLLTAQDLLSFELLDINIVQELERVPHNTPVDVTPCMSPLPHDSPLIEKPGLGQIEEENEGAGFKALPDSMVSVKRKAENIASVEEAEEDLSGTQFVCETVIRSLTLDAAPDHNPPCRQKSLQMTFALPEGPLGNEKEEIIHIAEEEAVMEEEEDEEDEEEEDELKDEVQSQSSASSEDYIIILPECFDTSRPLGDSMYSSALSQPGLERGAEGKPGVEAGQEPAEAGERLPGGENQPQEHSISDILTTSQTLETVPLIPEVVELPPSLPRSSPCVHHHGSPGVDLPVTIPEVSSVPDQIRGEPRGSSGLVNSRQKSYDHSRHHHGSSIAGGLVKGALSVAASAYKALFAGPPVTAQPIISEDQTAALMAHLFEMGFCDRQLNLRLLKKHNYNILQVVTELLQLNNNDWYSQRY
Experimental: as §1

p62 = target: T3, p62 (Homo sapiens, UniProt Q13501); assay: In vitro pulldown assay with biotinylated p62 ligands; type: binding; settings: biotinylated ligand, HEK293T extracts
T3 construct: expressed in transfected cells; host or cells: HEK293T, transient; whole lysate used
Experimental: A set of synthetic 12-mer peptides corresponding to the N-terminal sequences of the V-BiP (V[19]-[…]-biotin) and V-RGS4 (V^2-[…]-biotin) was C-terminally biotin-conjugated. Alternatively, biotinylated versions of YOK-1304, YT-8-8, YTK-1105, YOK-2204, and PBA were synthesized. To cross-link the above peptides with resin beads, biotin-conjugated peptides, and small molecule were mixed with high-capacity streptavidin agarose resin (Thermo Fisher Scientific) at a ratio of 0.5 mg of peptide per 1 mL of settled resin and incubated on a rotator at 4 °C overnight. After washing five times with PBS, the peptide/small molecule-bead conjugates were diluted with PBS at a 1:1 ratio. To prepare protein extracts, cells were collected by centrifugation and lysed by freezing and thawing at least 10 times in hypotonic buffer [10 mM KCl, 1.5 mM MgCl2, and 10 mM HEPES (pH 7.9)] with a protease inhibitor mix (Sigma). After centrifugation at 15,000 rpm 4 °C for 15 min, proteins were quantified using a BCA protein assay kit (Thermo Fisher Scientific). Total protein (200 μg) diluted in 300 μL of binding buffer [0.05% Tween-20, 10% glycerol, 0.2 M KCl, and 20 mM HEPES (pH 7.9)] were mixed with 50 μL of peptide/small molecule-bead resin and incubated at 4 °C for 2 h on a rotator. The protein-bound beads were collected by centrifugation at 2400 × g for 3 min and washed five times with binding buffer. The beads were resuspended in 25 μL of SDS sample buffer, heated at 95 °C for 5 min, and subjected to SDS/PAGE and immunoblotting.

[3] = tested on: p62 and the lysosomal marker LAMP1; assay: ICC of LAMP1-p62 co-localization in HeLa cells; type: cell-based; settings: 2.5 μM, 24 h
Experimental: as §2, with “experiments […]” for “experiments”
Supplementary Fig. 2. Characterization of p62-ZZ ligands (a, c, e) 3-D modeling of p62 ZZ ligands YOK-1304, YOK-2204 and YTK-105, respectively. (b, d, f) 2-D diagram for YOK-1304, YOK-2204 and YTK-105, respectively. (g,h) ICC of HeLa cells treated with the indicated compounds (2.5 μM, 24 h). Scale bar, 10 μm. (i) Quantification of h for co-localization (n=3, 50 cells). (j) ICC of HeLa cells treated with the indicated compounds (2.5 μM, 24 h). Scale bar, 10 μm. (k) Quantification of j for co-localization (n=3, 50 cells). (l) ICC of HeLa cells transiently expressing WIPI2-GFP and treated with the indicated compounds (2.5 μM, 6 h). (m) Quantification of l for co-localization (n=3, 50 cells). Scale bar, 10 µm. (n) […]

[4] = tested on: p62-positive and WIPI2-positive punctate structures; assay: ICC of WIPI2-p62 co-localization in HeLa cells; type: cell-based; settings: HeLa, endogenous WIPI2, 2.5 μM, 24 h
Experimental: as §2
Supplementary Fig. 2. Characterization of p62-ZZ ligands (a, c, e) 3-D modeling of p62 […]
μM, 6 h). (m) Quantification of l for co-localization (n=3, 50 cells). Scale bar, 10 µm. (n) […]

[5] = WST assay viability relative to con = 100, LNcaP, duplicates
[6] = WST assay viability, AVG %, LNcaP

SMILES: N#Cc1ccc(O[C@H]2CC[C@H](NC(=O)c3ccc(N4CCC(CN5CCN(c6cc7c(cc6F)C(=O)N(C6CCC(=O)NC6=O)C7=O)CC5)CC4)nn3)CC2)cc1Cl (some centres unmarked) [ARV-110]
IC50, proliferation assay (VCaP cells): low nM range

interaction with mutant p62^D129A (mutant p62^D129A): severely crippled
interaction with NBR1 (NBR1): not NBR1
binding of p62 in pulldown (p62): bound
SMILES: CC(C)NCC(O)COc1ccc(OCCc2ccccc2)c(OCCc2ccccc2)c1 (centres unmarked) [YOK-2204]
LC3 puncta formation, AVG of cells of 50 [1]: 44.6667
LC3 puncta formation, percentage AVG [1]: 89.3333%
p62-LC3 colocalization, AVG of cells of 50 [1]: 37
p62-LC3 colocalization, percentage AVG [1]: 74%
p62 puncta formation, AVG of cells of 50 [1]: 40.3333
p62 puncta formation, percentage AVG [1]: 80.6667%
LC3 puncta formation, cells of 50 cells counted ([1]; single experiments): 47 and 46 and 41
p62-LC3 colocalization, cells of 50 cells counted ([1]; single experiments): 43 and 37 and 31
p62 puncta formation, cells of 50 cells counted ([1]; single experiments): 43 and 37 and 41
WST assay raw reading (LNCaP cells; 0.01uM): 2.286 and 1.976
WST assay viability relative to con = 100 (LNCaP cells; 0.01uM): 93.5242
WST assay raw reading (LNCaP cells; 0.1uM): 2.213 and 1.938
WST assay viability relative to con = 100 (LNCaP cells; 0.1uM): 91.6264
WST assay raw reading (LNCaP cells; 1uM): 2.21 and 1.972
WST assay viability relative to con = 100 (LNCaP cells; 1uM): 93.3245
WST assay raw reading (LNCaP cells; 10uM): 2.305 and 2.064
WST assay viability relative to con = 100 (LNCaP cells; 10uM): 97.9191
WST assay raw reading (LNCaP cells; 50uM): 2.575 and 2.249
WST assay viability relative to con = 100 (LNCaP cells; 50uM): 107.158
WST assay raw reading (LNCaP cells; 100uM): 2.662 and 2.714
WST assay viability relative to con = 100 (LNCaP cells; 100uM): 130.381
viability at 0.01 µM [2, 5]: 109%
viability at 0.1 µM [2, 5]: 105%
viability at 1 µM [2, 5]: 105%
viability at 10 µM [2, 5]: 110%
viability at 50 µM [2, 5]: 123%
viability at 100 µM [2, 5]: 128%
viability at 0.01 µM [2, 6]: 101%
viability at 0.1 µM [2, 6]: 98.5%
viability at 1 µM [2, 6]: 99.3%
viability at 10 µM [2, 6]: 104%
viability at 50 µM [2, 6]: 115%
viability at 100 µM [2, 6]: 129%

binding of p62 in pulldown (p62): bound
SMILES: OCCNCCNCc1cccc(OCc2ccc(F)cc2)c1 [YT-8-8]
LAMP1-p62 colocalization, AVG of cells of 50 [3]: 33
LAMP1-p62 colocalization, percentage AVG [3]: 66%
LAMP1-p62 colocalization, cells of 50 cells counted ([3]; single experiments): 32 and 38 and 29
WIPI2-p62 colocalization, AVG of cells of 50 [4]: 43.3333
WIPI2-p62 colocalization, percentage AVG [4]: 86.6667%
WIPI2-p62 colocalization, cells of 50 cells counted ([4]; single experiments): 42 and 39 and 49
